In brackets after ≈: the same amount, converted by molar mass.
Tests used:
[1] = tested on: Klebsiella pneumonia ATCC 43816; assay: Minimal Inhibitory Concentration (MIC) assay, Klebsiella pneumonia ATCC 43816; type: cell-based; conditions: Klebsiella pneumoniae, ATCC43816, 20 h, read-out: MIC Klebsiella pneumoniae ATCC43816
Procedure: (§1) The antibacterial activity of the compounds of the present invention was evaluated against the commonly used quality control strain Escherichia coli ATCC 25922 and the rifampin-resistant mutant strain Klebsiella pneumonia ATCC 43816. Both were originally derived from human clinical samples and are available from ATCC (American Type Culture Collection). The in vitro potency of compounds to inhibit Escherichia coli (ATCC 25922) and Klebsiella pneumonia (ATCC 43816) growth was assessed by the MIC (Minimal Inhibitory Concentration) broth dilution method. Specifically compound dilutions were prepared from 10 mM DMSO stock solutions as follows: i) serial 2-fold dilution in 20 μL DMSO were prepared in a master plate (Greiner, Cat No: 651201), ii) 180 μL sterile distilled water was added to each aliquot and iii) 10 μL diluted compounds were transferred into a new assay plate (Costar, 3599).
(§2) Vials of each test microorganisms were maintained frozen in the vapor phase of a liquid nitrogen freezer. Single-use frozen vials of the two strains Escherichia coli ATCC 25922 (KWIKSTIK, 0335K) and Klebsiella pneumonia ATCC 43816, with predetermined CFU/mL, were taken out from the freezer, thawed at room temperature, and diluted in Cation-Adjusted Mueller Hinton Broth (CAMHB) to achieve a final inoculum of 5×10^5 CFU/mL. 90 μL bacteria containing broth was dispensed to the assay plate containing the pre-dispensed compound dilutions and mixed by pipetting 5 times.
(§3) Then the assay plates were incubated for 20 hours at 35° C. in ambient air. Following incubation, the MIC (μg/mL), the lowest concentration of drug that inhibits visible growth of the microorganism was read with the help of a magnification mirror and recorded.

[2] = tested on: Escherichia coli ATCC 25922; assay: Minimal Inhibitory Concentration (MIC) assay, Escherichia coli ATCC 25922; type: cell-based; conditions: ATCC25922, 20 h, read-out: MIC Escherichia coli ATCC25922
Procedure: as §1, §2, §3

[3] = Human Microsome Stability Assay; type: in vitro ADME; conditions: 1 μM compound, 0.5 mg/mL liver microsomal protein, 1 mM NADPH, pH 7.4, 37° C., 0-30 minutes; for CLint scaled at 1 µM: human, liver microsomes, read-out: Clearance of Human microsome
Procedure: The human microsomal stability assay is used for early assessment of metabolic stability of compounds of present invention in human liver microsomes. Human liver microsomes (Cat. NO.: 452117, Corning, USA) were pre-incubated with test compound for 10 minutes at 37° C. in 100 mM potassium phosphate buffer, pH 7.4. The reactions were initiated by adding NADPH regenerating system. The final incubation mixtures contained 1 μM compound, 0.5 mg/mL liver microsomal protein, 1 mM MgCl2 and 1 mM NADPH in 100 mM potassium phosphate buffer, pH 7.4. After incubation times of 0, 3, 6, 9, 15 and 30 minutes at 37° C., 300 μL of cold acetonitrile (including internal standard) was added to 100 μL incubation mixture to terminate the reaction. Following precipitation and centrifugation, the amount of compound remaining in the samples were determined by LC-MS/MS. Controls of no NADPH regenerating system at zero and 30 minutes were also prepared and analyzed.

| SMILES | MIC [1] | MIC [2] | CLint scaled at 1 µM [3] | Clearance of Human microsome [3] |
| --- | --- | --- | --- | --- |
| Cc1cc(C(F)(F)F)nc(N2CCN(S(=O)(=O)c3ccc4c(c3)OC[C@H]3[C@H](CN)OC(=O)N43)CC2)n1 (relative stereo) [Example 002] | 1.32 µg/mL (≈ 2.5 µM) | 0.66 µg/mL (≈ 1.25 µM) | 10 mL/min/kg | – |
| NCCN(CCN)CC(=O)N1CCC(C(F)(F)c2cc(Cl)nc(N3CCN(S(=O)(=O)c4ccc5c(c4)OC[C@@H]4[C@H](CO)OC(=O)N54)CC3)c2)CC1 [Example 052, (3R,3aR)-7-[4-[4-[[1-[2-[bis(2-aminoethyl)amino]acetyl]-4-piperidyl]-difluoro-methyl]-6-chloro-2-pyridyl]piperazin-1-yl]sulfonyl-3-(hydroxymethyl)-3a,4-dihydro-3H-oxazolo[4,3-c][1,4]benzoxazin-1-one] | 1.36 µg/mL (≈ 1.8 µM) | 0.68 µg/mL (≈ 0.898 µM) | 6.4 mL/min/kg | – |
| C[N+]1(CCN)CCC[C@H]1C(=O)N[C@H]1CC[C@H](C(F)(F)c2cc(Cl)nc(N3CCN(S(=O)(=O)c4ccc5c(c4)OC[C@@H]4[C@H](CO)OC(=O)N54)CC3)c2)CC1 (stereo in doubt) [Example 062, (2S)-1-(2-aminoethyl)-N-[4-[[2-chloro-6-[4-[[(3R,3aR)-3-(hydroxymethyl)-1-oxo-3a,4-dihydro-3H-oxazolo[4,3-c][1,4]benzoxazin-7-yl]sulfonyl]piperazin-1-yl]-4-pyridyl]-difluoro-methyl]cyclohexyl]-1-methyl-pyrrolidin-1-ium-2-carboxamide;chloride] | 0.67 µg/mL | 0.67 µg/mL | – | 6.2 mL/min/kg |
| Cc1cc(C(F)(F)F)nc(N2CCN(S(=O)(=O)c3ccc4c(c3)OC[C@H]3[C@@H](CN)OC(=O)N43)CC2)n1 (relative stereo) [Example 006] | 0.88 µg/mL (≈ 1.67 µM) | 0.44 µg/mL (≈ 0.833 µM) | 12.5 mL/min/kg | – |
| O=C1O[C@H](CO)[C@H]2COc3cc(S(=O)(=O)N4CCN(c5cc(C(F)(F)C6CCNCC6)cc(Cl)n5)CC4)ccc3N12 [Example 037, (3S,3aR)-7-[4-[6-chloro-4-[difluoro(4-piperidyl)methyl]-2-pyridyl]piperazin-1-yl]sulfonyl-3-(hydroxymethyl)-3a,4-dihydro-3H-oxazolo[4,3-c][1,4]benzoxazin-1-one] | 1.14 µg/mL (≈ 1.86 µM) | 1.1 µg/mL (≈ 1.79 µM) | 10.9 mL/min/kg | – |
| C[N@@+]1(CC(N)=O)CCC[C@H]1C(=O)N[C@H]1CC[C@H](C(F)(F)c2cc(Cl)nc(N3CCN(S(=O)(=O)c4ccc5c(c4)OC[C@@H]4[C@H](CN)OC(=O)N54)CC3)c2)CC1 [Example 060, (1S,2S)—N-[4-[[2-[4-[[(3S,3aR)-3-(aminomethyl)-1-oxo-3a,4-dihydro-3H-oxazolo[4,3-c][1,4]benzoxazin-7-yl]sulfonyl]piperazin-1-yl]-6-chloro-4-pyridyl]-difluoro-methyl]cyclohexyl]-1-(2-amino-2-oxo-ethyl)-1-methyl-pyrrolidin-1-ium-2-carboxamide; chloride] | 0.51 µg/mL | 0.51 µg/mL | – | 6.2 mL/min/kg |
| NCCCN(CCCN)C(=O)[C@H]1CC[C@H](C(F)(F)c2cc(Cl)nc(N3CCN(S(=O)(=O)c4ccc5c(c4)OC[C@H]4[C@H](CO)OC(=O)N54)CC3)c2)CC1 [Example 048, 4-[[2-[4-[[(3R,3aS)-3-(hydroxymethyl)-1-oxo-3a,4-dihydro-3H-oxazolo[4,3-c][1,4]benzoxazin-7-yl]sulfonyl]piperazin-1-yl]-6-chloro-4-pyridyl]-difluoro-methyl]-N,N-bis(3-aminopropyl)cyclohexanecarboxamide] | 0.64 µg/mL (≈ 0.831 µM) | 0.64 µg/mL (≈ 0.831 µM) | 12.9 mL/min/kg | – |
| CN1CC=C(C(F)(F)c2cc(Cl)nc(N3CCN(S(=O)(=O)c4ccc5c(c4)OC[C@H]4[C@@H](CN)OC(=O)N54)CC3)c2)CC1 (stereo in doubt) [Example 020, cis-3-(aminomethyl)-7-[4-[6-chloro-4-[difluoro-(1-methyl-3,6-dihydro-2H-pyridin-4-yl)methyl]-2-pyridyl]piperazin-1-yl]sulfonyl-3a,4-dihydro-3H-oxazolo[4,3-c][1,4]benzoxazin-1-one] | 0.29 µg/mL (≈ 0.464 µM) | 0.29 µg/mL (≈ 0.464 µM) | – | – |
| NC[C@H]1OC(=O)N2c3ccc(S(=O)(=O)N4CCN(c5cc(C(F)(F)C6COCCO6)cc(Cl)n5)CC4)cc3OC[C@H]12 (stereo in doubt) [Example 017, trans-3-(aminomethyl)-7-[4-[6-chloro-4-[1,4-dioxan-2-yl(difluoro)methyl]-2-pyridyl]piperazin-1-yl]sulfonyl-3a,4-dihydro-3H-oxazolo[4,3-c][1,4]benzoxazin-1-one] | 0.57 µg/mL (≈ 0.925 µM) | 0.57 µg/mL (≈ 0.925 µM) | – | – |
| CC(N)C(=O)N1CC(C(F)(F)c2cc(Cl)nc(N3CCN(S(=O)(=O)c4ccc5c(c4)OC[C@@H]4[C@H](CO)OC(=O)N54)CC3)c2)C1 (stereo partly drawn) [Example 041, (3R,3aR)-7-[4-[4-[[1-(2-aminopropanoyl)azetidin-3-yl]-difluoro-methyl]-6-chloro-2-pyridyl]piperazin-1-yl]sulfonyl-3-(hydroxymethyl)-3a,4-dihydro-3H-oxazolo[4,3-c][1,4]benzoxazin-1-one] | 2.4 µg/mL (≈ 3.65 µM) | 2.4 µg/mL (≈ 3.65 µM) | – | – |
| C[N@+]1(CC(N)=O)CCC[C@H]1C(=O)N[C@H]1CC[C@H](C(F)(F)c2cc(Cl)nc(N3CCN(S(=O)(=O)c4ccc5c(c4)OC[C@@H]4[C@H](CO)OC(=O)N54)CC3)c2)CC1 [Example 059, (1R,2S)—N-[4-[[2-[4-[[(3R,3aR)-3-(hydroxymethyl)-1-oxo-3a,4-dihydro-3H-oxazolo[4,3-c][1,4]benzoxazin-7-yl]sulfonyl]piperazin-1-yl]-6-chloro-4-pyridyl]-difluoro-methyl]cyclohexyl]-1-(2-amino-2-oxo-ethyl)-1-methyl-pyrrolidin-1-ium-2-carboxamide;chloride] | 0.66 µg/mL | 0.66 µg/mL | – | – |
| NC[C@H]1OC(=O)N2c3ccc(S(=O)(=O)N4CCN(c5cc(S(=O)(=O)C6CC6)cc(Cl)n5)CC4)cc3OC[C@@H]12 (relative stereo) [Example 005] | 1 µg/mL (≈ 1.71 µM) | 0.97 µg/mL (≈ 1.66 µM) | – | – |
| NC[C@@H]1OC(=O)N2c3ccc(S(=O)(=O)N4CCN(c5cc(C(F)(F)[C@@H]6COCCO6)cc(Cl)n5)CC4)cc3OC[C@H]12 [Example 022, (3S,3aR)-3-(aminomethyl)-7-[4-[6-chloro-4-[[(2S)-1,4-dioxan-2-yl]-difluoro-methyl]-2-pyridyl]piperazin-1-yl]sulfonyl-3a,4-dihydro-3H-oxazolo[4,3-c][1,4]benzoxazin-1-one] | 0.3 µg/mL (≈ 0.487 µM) | 0.44 µg/mL (≈ 0.714 µM) | – | – |
| CN1CCC(C(F)(F)c2cc(Cl)nc(N3CCN(S(=O)(=O)c4ccc5c(c4)OC[C@H]4[C@@H](CN)OC(=O)N54)CC3)c2)CC1 (stereo in doubt) [Example 010, cis-3-(aminomethyl)-7-[4-[6-chloro-4-[difluoro-(1-methyl-4-piperidyl)methyl]-2-pyridyl]piperazin-1-yl]sulfonyl-3a,4-dihydro-3H-oxazolo[4,3-c][1,4]benzoxazin-1-one] | 0.98 µg/mL (≈ 1.56 µM) | 0.98 µg/mL (≈ 1.56 µM) | – | – |
| O=C1O[C@@H](CO)[C@H]2COc3cc(S(=O)(=O)N4CCN(c5cc(C(F)(F)C67CNCC6C7)cc(Cl)n5)CC4)ccc3N12 (stereo partly drawn) [Example 036, (3R,3aR)-7-[4-[4-[3-azabicyclo[3.1.0]hexan-1-yl(difluoro)methyl]-6-chloro-2-pyridyl]piperazin-1-yl]sulfonyl-3-(hydroxymethyl)-3a,4-dihydro-3H-oxazolo[4,3-c][1,4]benzoxazin-1-one] | 0.14 µg/mL (≈ 0.229 µM) | 0.14 µg/mL (≈ 0.229 µM) | – | – |
| O=C1O[C@H](CO)[C@@H]2COc3cc(S(=O)(=O)N4CCN(c5cc(C(F)(F)[C@H]6CNCCO6)cc(Cl)n5)CC4)ccc3N12 (stereo in doubt) [Example 032, cis-7-[4-[6-chloro-4-[difluoro-[(2R)-morpholin-2-yl]methyl]-2-pyridyl]piperazin-1-yl]sulfonyl-3-(hydroxymethyl)-3a,4-dihydro-3H-oxazolo[4,3-c][1,4]benzoxazin-1-one] | 0.241 µg/mL (≈ 0.391 µM) | 0.24 µg/mL (≈ 0.39 µM) | – | – |
| O=C1CCC2COc3cc(S(=O)(=O)N4CCN(c5cc(C(F)(F)[C@H]6CNCCO6)cc(Cl)n5)CC4)ccc3N12 (stereo partly drawn) [Example 030, 7-[4-[6-Chloro-4-[difluoro-[(2R)-morpholin-2-yl]methyl]-2-pyridyl]piperazin-1-yl]sulfonyl-2,3,3a,4-tetrahydropyrrolo[2,1-c][1,4]benzoxazin-1-one] | 0.492 µg/mL (≈ 0.842 µM) | 0.49 µg/mL (≈ 0.839 µM) | – | – |
